{"source": "patent US9309201B2", "about": "“Process for preparating ivabradine hydrochloride form IV and methods of treatment of disease using ivabradine hydrochloride form IV” (URQUIMA, S.A., priority 2011, dated 2016)", "test": "Check for transformation of crystalline Form IV after tablet manufacture", "type": "physicochemical", "procedure": "All the components, with the exception of magnesium stearate and silica colloidal anhydrous, were mixed. Finally, silica colloidal anhydrous and magnesium stearate were added and mixed. The blend was compressed in an excentric tabletting machine.\nAll the components with the exception of magnesium stearate and silica colloidal anhydrous were mixed and granulated using ethanol as a granulating solvent. Then a wet calibration of the granules was performed. The obtained granules were dried followed by a dry calibration of the granules. Thereafter, silica colloidal anhydrous and magnesium stearate were added and mixed. The lubricated granulate was compressed in an eccentric tabletting machine.\nFinally, tablets were coated using conventional coating agents until a weight increase of approximately 3%.", "note": "Where a name gives a salt, the structure may show the parent alone.", "data": [{"compound": "COc1cc2c(cc1OC)CC(=O)N(CCCN(C)C[C@H]1Cc3cc(OC)c(OC)cc31)CC2", "note": "[Form IV of ivabradine hydrochloride, ivabradine hydrochloride]", "values": [{"measurement": "transformation of the crystalline Form IV in tablets", "setting": "Example 26 tablets, blend compressed directly in an excentric tabletting machine", "result": "absence of any transformation"}, {"measurement": "transformation of the crystalline Form IV in film-coated tablets", "setting": "Example 27 tablets, wet granulation with ethanol, drying, compression, coating to approximately 3% weight increase", "result": "absence of any transformation"}]}]}
